Measurements as given in patent publication US8742078B2, “Antibacterial 4,6-substituted 6′, 6″ and 1 modified aminoglycoside analogs” (Isis Pharmaceuticals, Inc., priority 2008, dated 2014).

Experiments:
[1] = test system: P. aeruginosa 29248; test: MIC assay, P. aeruginosa 29248; format: cell-based; design: unit not given here; settings: range: complete growth inhibition at higher, viable cells at lower concentration; 20-24 hours at 37° C.
Experimental: (§1) The MIC assays are carried out in 150 μL volume in duplicate in 96-well clear flat-bottom plates. The bacterial suspension from an overnight culture growth in appropriate medium is added to a solution of test compound in 2.5% DMSO in water. Final bacterial inoculum is approximately 10^2-10^3 CFU/well. The percentage growth of the bacteria in test wells relative to that observed for control wells containing no compound is determined by measuring absorbance at 595 nm (A595) after 20-24 hours at 37° C. The MIC is determined as a range of concentration where complete inhibition of growth is observed at the higher concentration and bacterial cells are viable at the lower concentration. Both ampicillin and tetracycline are used as antibiotic positive controls in each screening assay. Both ampicillin and tetracycline are used as antibiotic-positive controls in each screening assay for S. pyogenes, E. coli imp-, E. coli, S. aureus, E. faecalis, K. pneumoniae and P. vulgaris. Ciprofloxacin is used as an antibiotic positive control in each screening assay for P. aeruginosa.

[2] = test system: P. aeruginosa 27853; test: MIC assay, P. aeruginosa 27853; format: cell-based; design: unit not given here; settings: range: complete growth inhibition at higher, viable cells at lower concentration; 20-24 hours at 37° C.
Experimental: as §1

| Molecule | MIC P aeruginosa 29248 [1] | MIC P aeruginosa 27853 [2] |
| --- | --- | --- |
| 6″-deoxy-6″-phenethylamino-N-1-(4-amino-2-S-hydroxybutyryl)kanamycin A [IBIS00561977] | 5-10 | 10-20 |
| NC[C@H]1O[C@H](O[C@H]2[C@H](O)[C@@H](O[C@H]3O[C@H](CO)[C@@H](O)[C@H](N)[C@H]3O)[C@H](N)C[C@@H]2N)[C@H](O)[C@@H](O)[C@@H]1O [IBIS00262400, Kanamycin A, reference compound] | 2.5-5 | 1.25-2.5 |
| NCC[C@H](O)C(=O)N[C@@H]1C[C@H](N)[C@@H](O[C@H]2O[C@H](CN)[C@@H](O)[C@H](O)[C@H]2O)[C@H](O)[C@H]1O[C@H]1O[C@H](CO)[C@@H](O)[C@H](N)[C@H]1O [IBIS00404962, Amikacin, reference compound] | <0.625 | 1.25-2.5 |
| NCC[C@H](O)C(=O)N[C@@H]1C[C@H](N)[C@@H](O[C@H]2O[C@H](CNCCc3ccccc3)[C@@H](O)[C@H](O)[C@H]2O)[C@H](O)[C@H]1O[C@H]1O[C@H](CO)[C@@H](O)[C@H](N)[C@H]1O [IBIS00561960, 6′-N-Phenethylamino-N-1-(4-amino-2-S-hydroxybutyryl)kanamycin A] | 5-10 | 2.5-5.0 |
| CN(C)CC1OC(OC2C(N)CC(NC(=O)[C@@H](O)CCN)C(OC3OC(CO)C(O)C(N)C3O)C2O)C(O)C(O)C1O (stereo partly shown) [IBIS00561961, 6′-N,N-Dimethyl-N-1-(4-amino-2-S-hydroxybutyryl)kanamycin A] | >40 | 10-20 |
| NCC[C@H](O)C(=O)N[C@@H]1C[C@H](N)[C@@H](O[C@H]2O[C@H](CNCCCc3ccccc3)[C@@H](O)[C@H](O)[C@H]2O)[C@H](O)[C@H]1O[C@H]1O[C@H](CO)[C@@H](O)[C@H](N)[C@H]1O [IBIS00561962, 6′-N-Phenpropylamino-N-1-(4-amino-2-S-hydroxybutyryl)kanamycin A] | 2.5-5.0 | 2.5-5.0 |
| CC(C)CNCC1OC(OC2C(N)CC(NC(=O)[C@@H](O)CCN)C(OC3OC(CO)C(O)C(N)C3O)C2O)C(O)C(O)C1O (stereo partly shown) [IBIS00561963, 6′-N-Isobutyl-N-1-(4-amino-2-S-hydroxybutyryl)kanamycin A] | >40 | 10-20 |
| CNC[C@H]1O[C@H](O[C@@H]2[C@@H](O)[C@H](O[C@H]3O[C@H](CN)[C@@H](O)[C@H](O)[C@H]3O)[C@@H](N)C[C@H]2NC(=O)[C@@H](O)CCN)[C@H](O)[C@@H](N)[C@@H]1O [IBIS00561974, 6″-deoxy-6″-methylamino-N-1-(4-amino-2-S-hydroxybutyryl)kanamycin A] | 0.625-1.25 | 2.5-5.0 |
| CC(C)NC[C@H]1O[C@H](O[C@@H]2[C@@H](O)[C@H](O[C@H]3O[C@H](CN)[C@@H](O)[C@H](O)[C@H]3O)[C@@H](N)C[C@H]2NC(=O)[C@@H](O)CCN)[C@H](O)[C@@H](N)[C@@H]1O [IBIS00561975, 6″-deoxy-6″-isopropylamino-N-1-(4-amino-2-S-hydroxybutyryl)kanamycin A] | 10-20 | 10-20 |
| NCC[C@H](O)C(=O)NC1CC(N)C(OC2OC(CN)C(O)C(O)C2O)C(O)C1OC1OC(CNC2CCCCC2)C(O)C(N)C1O (stereo partly shown) [IBIS00561976, 6″-deoxy-6″-cyclohexylamino-N-1-(4-amino-2-S-hydroxybutyryl)kanamycin A] | 5-10 | >40 |
| [N-]=[N+]=NC[C@H]1O[C@H](O[C@@H]2[C@@H](O)[C@H](O[C@H]3O[C@H](CN)[C@@H](O)[C@H](O)[C@H]3O)[C@@H](N)C[C@H]2NC(=O)[C@@H](O)CCN)[C@H](O)[C@@H](N)[C@@H]1O [IBIS00561980, 6″-deoxy-6″-azido-N-1-(4-amino-2-S-hydroxybutyryl)kanamycin A] | 0.625-1.25 | 2.5-5.0 |
| CCCNC[C@H]1O[C@H](O[C@@H]2[C@@H](O)[C@H](O[C@H]3O[C@H](CN)[C@@H](O)[C@H](O)[C@H]3O)[C@@H](N)C[C@H]2NC(=O)[C@@H](O)CCN)[C@H](O)[C@@H](N)[C@@H]1O [IBIS00561982, 6″-deoxy-6″-propylamino-N-1-(4-amino-2-S-hydroxybutyryl)kanamycin A] | 2.5-5.0 | 5.0-10.0 |
| CN(C)CCNCC1OC(OC2C(NC(=O)C(O)CCN)CC(N)C(OC3OC(CN)C(O)C(O)C3O)C2O)C(O)C(N)C1O (stereo not shown) [IBIS00561983, 6″-deoxy-6″-dimethylaminoethylamino-N-1-(4-amino-2-S-hydroxybutyryl)kanamycin A] | 1.25-2.5 | 1.25-2.5 |
| NCC[C@H](O)C(=O)N[C@@H]1C[C@H](N)[C@@H](O[C@H]2O[C@H](CN)[C@@H](O)[C@H](O)[C@H]2O)[C@H](O)[C@H]1O[C@H]1O[C@H](CNCCNCc2ccccc2)[C@@H](O)[C@H](N)[C@H]1O [IBIS00561984, 6″-deoxy-6″-benzylaminoethylamino-N-1-(4-amino-2-S-hydroxybutyryl)kanamycin A] | 5.0-10.0 | 5.0-10.0 |
